From PubChem BioAssay (NCI)
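Where inhibition never reached the appropriate level, the endpoint shown equals the highest concentration tested. Otherwise, values were interpolated linearly from a five-concentration, 48-hour dose response in 96-well plates. TGI: concentration producing complete growth inhibition.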

Columns and labels:
Assay in all cases: inhibition of tumour cell growth, NCI panel, 48 h
[1] = test system: SNB-75 CNS
[2] = test system: HL-60(TB) leukemia
[3] = test system: OVCAR-3 ovarian
[4] = test system: HCT-116 colon
[5] = test system: HCT-15 colon
[6] = test system: UO-31 renal
[7] = test system: SN12C renal
[8] = test system: SK-MEL-28 melanoma
[9] = test system: OVCAR-8 ovarian
[10] = test system: NCI/ADR-RES ovarian
[11] = test system: HOP-62 NSCLC
[12] = test system: OVCAR-4 ovarian
[13] = test system: ACHN renal
[14] = test system: HT29 colon
[15] = test system: SW-620 colon
[16] = test system: IGROV1 ovarian
[17] = test system: 786-0 renal
[18] = test system: NCI-H23 lung
[19] = test system: SNB-19 CNS
[20] = test system: COLO 205 colon
[21] = test system: SK-MEL-2 melanoma
[22] = test system: MDA-MB-231 breast
[23] = test system: NCI-H226 lung
[24] = test system: T-47D breast
[25] = test system: DU-145 prostate
[26] = test system: HCC-2998 colon
[27] = test system: U251 CNS
[28] = test system: A498 renal
[29] = test system: UACC-257 melanoma
[30] = test system: K-562 leukemia
[31] = test system: LOX IMVI melanoma
[32] = test system: MCF7 breast
[33] = test system: SR leukemia
[34] = test system: SF-295 CNS
[35] = test system: NCI-H460 lung
[36] = test system: NCI-H522 lung
[37] = test system: RXF 393 renal
[38] = test system: TK-10 renal
[39] = test system: SK-OV-3 ovarian
[40] = test system: MOLT-4 leukemia
[41] = test system: KM12 colon
[42] = test system: SF-268 CNS
[43] = test system: MALME-3M melanoma
[44] = test system: SK-MEL-5 melanoma
[45] = test system: MDA-MB-435
[46] = test system: M14 melanoma
[47] = test system: CCRF-CEM leukemia
[48] = test system: UACC-62 melanoma
[49] = test system: HOP-92 NSCLC
[50] = test system: PC-3 prostate
[51] = test system: A549 NSCLC
[52] = test system: MDA-N
[53] = test system: SF-539 CNS
[54] = test system: RPMI-8226 leukemia
[55] = test system: EKVX NSCLC
[56] = test system: OVCAR-5 ovarian
[57] = test system: CAKI-1 renal
[58] = test system: HS 578T breast

CC(=O)OCC1OC(n2c(C)c(C(C)=O)c(-c3ccc(Cl)cc3)c(C#N)c2=S)C(OC(C)=O)C(OC(C)=O)C1OC(C)=O (stereo unspecified)
TGI [1]: > 100 µM
TGI [2]: > 100 µM
TGI [3]: > 100 µM
TGI [4]: > 100 µM
TGI [5]: > 100 µM
TGI [6]: > 100 µM
TGI [7]: > 100 µM
TGI [8]: > 100 µM
TGI [9]: > 100 µM
TGI [10]: > 100 µM
TGI [11]: > 100 µM
TGI [12]: > 100 µM
TGI [13]: > 100 µM
TGI [14]: > 100 µM
TGI [15]: > 100 µM
TGI [16]: > 100 µM
TGI [17]: > 100 µM
TGI [18]: > 100 µM
TGI [19]: > 100 µM
TGI [20]: > 100 µM
TGI [21]: > 100 µM
TGI [22]: > 100 µM
TGI [23]: > 100 µM
TGI [24]: > 100 µM
TGI [25]: > 100 µM
TGI [26]: > 100 µM
TGI [27]: > 100 µM
TGI [28]: > 100 µM
TGI [29]: > 100 µM
TGI [30]: > 100 µM
TGI [31]: > 100 µM
TGI [32]: > 100 µM
TGI [33]: > 100 µM
TGI [34]: > 100 µM
TGI [35]: > 100 µM
TGI [36]: > 100 µM
TGI [37]: > 100 µM
TGI [38]: > 100 µM
TGI [39]: > 100 µM
TGI [40]: > 100 µM
TGI [41]: > 100 µM
TGI [42]: > 100 µM
TGI [43]: > 100 µM
TGI [44]: > 100 µM
TGI [45]: > 100 µM
TGI [46]: > 100 µM
TGI [47]: > 100 µM
TGI [48]: > 100 µM
TGI [49]: > 100 µM
TGI [50]: > 100 µM
TGI [51]: > 100 µM
TGI [52]: > 100 µM
TGI [53]: > 100 µM

CC1(C)COC(c2ccc(C(=O)c3ccc(Cl)cc3)cc2)=N1
TGI [1]: > 100 µM
TGI [2]: > 100 µM
TGI [54]: > 100 µM
TGI [3]: > 100 µM
TGI [55]: > 100 µM
TGI [56]: > 100 µM
TGI [4]: > 100 µM
TGI [5]: > 100 µM
TGI [6]: > 100 µM
TGI [7]: > 100 µM
TGI [8]: > 100 µM
TGI [9]: > 100 µM
TGI [10]: > 100 µM
TGI [11]: > 100 µM
TGI [13]: > 100 µM
TGI [14]: > 100 µM
TGI [15]: > 100 µM
TGI [16]: > 100 µM
TGI [17]: > 100 µM
TGI [57]: > 100 µM
TGI [18]: > 100 µM
TGI [19]: > 100 µM
TGI [20]: > 100 µM
TGI [21]: > 100 µM
TGI [22]: > 100 µM
TGI [23]: > 100 µM
TGI [25]: > 100 µM
TGI [26]: > 100 µM
TGI [27]: > 100 µM
TGI [29]: 64.9 µM
TGI [30]: > 100 µM
TGI [31]: > 100 µM
TGI [32]: > 100 µM
TGI [58]: > 100 µM
TGI [34]: > 100 µM
TGI [35]: > 100 µM
TGI [36]: > 100 µM
TGI [37]: > 100 µM
TGI [39]: > 100 µM
TGI [40]: > 100 µM
TGI [41]: > 100 µM
TGI [42]: > 100 µM
TGI [43]: > 100 µM
TGI [44]: 30.5 µM
TGI [45]: > 100 µM
TGI [46]: > 100 µM
TGI [47]: > 100 µM
TGI [48]: > 100 µM
TGI [49]: > 100 µM
TGI [50]: > 100 µM
TGI [51]: > 100 µM
TGI [52]: > 100 µM
TGI [53]: > 100 µM
